Measurements: ChEMBL document CHEMBL4265883, “Nav1.7 inhibitors for the treatment of chronic pain” (Bioorg Med Chem Lett, 2018)

Key:
Homo sapiens = species: Homo sapiens; test: Selectivity ratio of IC50 for human Nav1.5 to IC50 for human Nav1.7
[1] = biological target: Sodium channel protein type 9 subunit alpha (Homo sapiens, UniProt Q15858); test: Inhibition of human Nav1.7 expressed in HEK293 cells by electrophysiology assay; assay type: cell-based
Chain of Sodium channel protein type 9 subunit alpha (Q15858 whole entry): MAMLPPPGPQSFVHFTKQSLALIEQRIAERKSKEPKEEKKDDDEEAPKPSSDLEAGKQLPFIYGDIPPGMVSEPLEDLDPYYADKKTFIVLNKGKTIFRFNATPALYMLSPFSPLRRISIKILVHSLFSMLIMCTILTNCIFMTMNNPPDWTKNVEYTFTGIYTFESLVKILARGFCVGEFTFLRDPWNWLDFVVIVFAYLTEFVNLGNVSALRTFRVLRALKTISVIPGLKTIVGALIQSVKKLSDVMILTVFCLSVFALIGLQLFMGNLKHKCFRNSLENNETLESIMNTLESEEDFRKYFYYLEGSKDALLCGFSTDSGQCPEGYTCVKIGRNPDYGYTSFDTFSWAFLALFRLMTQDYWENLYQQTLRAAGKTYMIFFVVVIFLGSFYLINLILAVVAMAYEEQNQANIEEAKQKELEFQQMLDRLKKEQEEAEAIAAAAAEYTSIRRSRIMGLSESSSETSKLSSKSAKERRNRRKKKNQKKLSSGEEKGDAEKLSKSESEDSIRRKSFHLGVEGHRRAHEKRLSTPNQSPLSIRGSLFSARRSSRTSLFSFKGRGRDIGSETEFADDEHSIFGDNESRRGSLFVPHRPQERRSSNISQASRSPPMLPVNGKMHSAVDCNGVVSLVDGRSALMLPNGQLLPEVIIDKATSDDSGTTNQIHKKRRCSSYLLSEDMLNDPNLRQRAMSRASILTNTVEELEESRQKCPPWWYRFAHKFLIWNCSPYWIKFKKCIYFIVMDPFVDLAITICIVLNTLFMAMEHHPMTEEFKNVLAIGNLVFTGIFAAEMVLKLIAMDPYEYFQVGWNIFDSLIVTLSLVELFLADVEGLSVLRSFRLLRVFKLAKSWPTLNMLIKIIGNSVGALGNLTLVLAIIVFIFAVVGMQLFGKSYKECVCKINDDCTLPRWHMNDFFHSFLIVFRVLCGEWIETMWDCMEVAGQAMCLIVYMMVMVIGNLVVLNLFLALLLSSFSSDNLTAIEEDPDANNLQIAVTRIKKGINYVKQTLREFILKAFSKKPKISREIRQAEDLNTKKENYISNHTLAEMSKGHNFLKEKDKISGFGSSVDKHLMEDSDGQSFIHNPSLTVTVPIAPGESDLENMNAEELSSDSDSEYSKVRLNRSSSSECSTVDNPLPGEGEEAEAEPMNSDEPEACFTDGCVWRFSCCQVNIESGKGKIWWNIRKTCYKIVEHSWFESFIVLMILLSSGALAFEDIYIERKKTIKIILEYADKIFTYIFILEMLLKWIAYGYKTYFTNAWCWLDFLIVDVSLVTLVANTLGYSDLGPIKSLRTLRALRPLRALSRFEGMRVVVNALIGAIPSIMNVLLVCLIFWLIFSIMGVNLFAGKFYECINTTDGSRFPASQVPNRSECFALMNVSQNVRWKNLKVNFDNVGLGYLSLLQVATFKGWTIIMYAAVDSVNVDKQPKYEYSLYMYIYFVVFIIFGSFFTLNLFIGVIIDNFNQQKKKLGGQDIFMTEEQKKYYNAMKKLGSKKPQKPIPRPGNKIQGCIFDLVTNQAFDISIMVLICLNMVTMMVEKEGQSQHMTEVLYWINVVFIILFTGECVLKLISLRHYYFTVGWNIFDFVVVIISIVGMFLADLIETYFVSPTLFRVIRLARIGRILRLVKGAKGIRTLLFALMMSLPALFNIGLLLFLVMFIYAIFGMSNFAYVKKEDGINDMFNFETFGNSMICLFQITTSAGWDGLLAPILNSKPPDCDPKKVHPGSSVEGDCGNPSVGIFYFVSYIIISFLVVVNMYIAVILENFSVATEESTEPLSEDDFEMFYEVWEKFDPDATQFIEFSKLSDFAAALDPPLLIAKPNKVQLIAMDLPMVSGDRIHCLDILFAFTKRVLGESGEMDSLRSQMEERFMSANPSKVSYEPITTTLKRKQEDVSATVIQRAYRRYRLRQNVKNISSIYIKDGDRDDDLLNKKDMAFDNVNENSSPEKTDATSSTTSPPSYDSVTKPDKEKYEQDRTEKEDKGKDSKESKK

| Compound | Ratio IC50 (Homo sapiens) | IC50 [1] |
| --- | --- | --- |
| O=C(O)[C@@H]1C[C@@H](F)CN1C(=O)c1cc(C2CC2)c(OCC2CCN(Cc3c(Cl)cccc3Cl)CC2)cc1F | > 150 | – |
| Cc1nn(-c2cnc(OCC(C)C)c(Cl)c2)c2ccc(C(=O)NS(C)(=O)=O)cc12 [PF-05241328] | – | 31 nM |
| CN[C@H](CNc1cc(F)c(S(=O)(=O)Nc2nccs2)cc1Cl)Cc1cccc(Cl)c1 | > 1380 | 15 nM |
